Reference: patent US8461362B2, “Protein phosphatase 2A-activating agents” (The Ohio State University Research Foundation, priority 2009, dated 2013)

Legend:
Assay type in all cases: cell-based
[1] = tested on: Akt, ERK, JNK and p38 phosphorylation in LNCaP cells; assay: Western blot of kinase phosphorylation in LNCaP cells
Experimental: (§1) Cells cultured in T25 flasks were collected by scraping, and cell pellets were washed once with PBS. Cells were lysed in a lysis buffer consisting of 1% SDS, 10 mM EDTA and 50 mM Tris-HCl, pH 8.1, in the presence of a commercial protease inhibitor cocktail from Aldrich-Sigma (2 mM AEBSF, 1 mM EDTA, 130 μM bestatin, 14 μM E-64, 1 μM leupeptin, and 0.3 μM aprotinin). Following a 10-sec sonication using 20% output in a Virsonic 300 sonicator (Virtis, Gardiner N.Y.) to disrupt cellular organelles and genomic DNA, cell lysates were centrifuged at 15,200×g for 15 minutes. One μL of the suspension was used for protein determination using a colorimetric BCA assay (Pierce, Rockford, Ill.), and to the remaining solution was added an equivalent volume of 2×SDS-polyacrylamide gel electrophoresis sample loading buffer (62.5 mM Tris-HCl, pH 6.8, 4% SDS, 5% β-mercaptoethanol, 20% glycerol, and 0.1% bromophenol blue), and boiled for 5 min. Equal amounts of proteins were resolved in 8% SDS-polyacrylamide gels, and transferred to nitrocellulose membranes using a semidry transfer cell. The transblotted membrane was washed twice with Tris-buffered saline containing 0.1% Tween 20 (TBST). After blocking with TBST containing 5% nonfat milk for 40 min, the membrane was incubated with the appropriate primary antibody in TBST-1% nonfat milk at 4° C. overnight. […]

[2] = tested on: Akt, ERK, JNK and p38 phosphorylation in PC-3 cells; assay: Western blot of kinase phosphorylation in PC-3 cells
Experimental: as §1

LNCaP cells = assay: MTT viability assay, LNCaP cells
Experimental: LNCaP androgen-dependent (p53^+/+) and PC-3 androgen-nonresponsive (p53^−/−) prostate cancer cells were purchased from the American Type Culture Collection (Manassas, Va.), and cultured in RPMI 1640 medium containing 10% heat-inactivated FBS. […] All cell types were cultured at 37° C. in a humidified incubator containing 5% CO2. Cells in log phase growth were harvested by trypsinization for use in the MTT viability assay. LNCaP cells were plated in poly-D-lysine coated culture flasks in order to assist cell adherence to the surface. Prior to drug treatment, cells were plated in a density of 12,000 cells/cm^2 surface area in the respective culture medium for 24-48 h, followed by individual test agents in 2.5% FBS-supplemented RPMI medium.

AR mRNA in LNCaP cells = assay: RT-PCR of AR mRNA in LNCaP cells; details: 10 μM
Experimental: (§2) RNA Isolation and Reverse Transcription (RT)-PCR.
(§3) LNCaP cells were subject to total RNA isolation by using a Trizol reagent (Invitrogen Corporation, CA). RNA concentrations were determined by measuring absorption at 260 nm in a spectrophotometer. Aliquots of 2 μg of total RNA from each sample were reverse transcribed to cDNAs using the iScript cDNA Synthesis Kit (Bio-Rad) according to the manufacturer's instructions. PCR products were resolved electrophoretically in 1.2% agarose gels and visualized by ethidium bromide staining.

AR promoter = assay: AR promoter-luciferase reporter assay (hAR-Luc) in LNCaP cells; details: hAR-Luc transfected LNCaP cells, 72 h of exposure
Experimental: Transfection and Luciferase Assay.
Cells were transfected with 5 μg of the AR-linked luciferase reporter (hAR-Luc) plasmid in an Amaxa Nucleofector using a cell line-specific nucleofector kit according to the manufacturer's protocol (Amaxa Inc. Gaithersburg, Md.) and then seeded in T25 flasks at 3×10^5 cells per flask for 48 h. The transfection efficiency was determined by transfecting cells with 3 μg of pmaxGFP plasmid followed by fluorescence microscopy to detect green fluorescent protein expression. For each transfection, herpes simplex virus (HSV) thymidine kinase promoter-driven Renilla reniformis luciferase was used as an internal control for normalization. For the luciferase reporter gene assay, after transfection, cells were cultured in 24-well plates in 10% FBS-supplemented RPMI 1640 for 48 h, subjected to different treatments in 2.5% FBS-supplemented medium for the indicated times, collected, and lysed with passive lysis buffer (Promega). Aliquots of lysates (50 μL) were mixed with 75 μL of luciferase substrate (Promega) in 96-well plates, and luciferase activities were monitored in a MicroLumaPlus LB96V luminometer (Berthold Technologies, Oak Ridge, Tenn.) with the WinGlow software package. All transfection experiments were carried out in six replicates.

[3] = tested on: Sp1 mRNA and Sp1 target genes VEGF, Mdm2, DNMT1; assay: mRNA expression of Sp1 and Sp1 downstream target genes in LNCaP cells; details: for Sp1 mRNA expression: high doses
Experimental: as §2, §3

| SMILES | phosphorylation levels of Akt, ERK, JNK, p38 [1] | phosphorylation levels of Akt, ERK, JNK, p38 [2] | cell viability of LNCaP cells (LNCaP cells) | AR mRNA transcript level (AR mRNA in LNCaP cells) | AR gene transcription (luciferase reporter activity) (AR promoter) | transcription of Sp1 downstream target genes (VEGF, Mdm2, DNMT1) [3] | Sp1 mRNA expression [3] |
| --- | --- | --- | --- | --- | --- | --- | --- |
| Cc1c(C)c2c(c(C)c1OC(=O)CCC(=O)O)CCC(C)(CCCC(C)CCCC(C)C)O2 (centres unmarked) [TS-1, succinic acid mono-[2-(4,8-dimethyl-nonyl)-2,5,7,8-tetramethylchroman-6-yl]ester] | dose-dependent reduction in the phosphorylation levels of all four kinases examined | also noted in PC-3 cells | suppressing the cell viability | time-dependent reduction | dose-dependent inhibitory effect | dose-dependent transcriptional repression | remained unaltered |
| Cc1c(C)c2c(c(C)c1OC(=O)CCC(=O)O)CC[C@@](C)(CCC[C@H](C)CCC[C@H](C)CCCC(C)C)O2 [VES, α-tocopheryl succinate] | dose-dependent reduction in the phosphorylation levels of all four kinases examined | also noted in PC-3 cells | suppressing the cell viability | time-dependent reduction | dose-dependent inhibitory effect | dose-dependent transcriptional repression | remained unaltered |
